Data on one compound can be found in article PMC6934184, “Selective DNA-PKcs inhibition extends the therapeutic index of localized radiotherapy and chemotherapy” (The Journal of Clinical Investigation, 2019).

The target of this assay is T1, MKNK2 (MNK2) (Homo sapiens, UniProt Q9HBH9).
T1 construct: purchased Thermo Fisher Scientific (Life Technologies) SelectScreen
Nature of the assay: SelectScreen LanthaScreen. It counts as binding. The note with it: read-out: % displacement. A digest of the protocol: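 Percent values come from Thermo SelectScreen profiling of NU5455, combining activity and binding assays. CSF1R was run in Z'LYTE format at Km app ATP, and CAMK1 in Adapta format with ATP listed at 10.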
In general terms: Time-resolved FRET reads energy transfer from a long-lived donor to a nearby acceptor.

T1 sequence (Q9HBH9 whole entry): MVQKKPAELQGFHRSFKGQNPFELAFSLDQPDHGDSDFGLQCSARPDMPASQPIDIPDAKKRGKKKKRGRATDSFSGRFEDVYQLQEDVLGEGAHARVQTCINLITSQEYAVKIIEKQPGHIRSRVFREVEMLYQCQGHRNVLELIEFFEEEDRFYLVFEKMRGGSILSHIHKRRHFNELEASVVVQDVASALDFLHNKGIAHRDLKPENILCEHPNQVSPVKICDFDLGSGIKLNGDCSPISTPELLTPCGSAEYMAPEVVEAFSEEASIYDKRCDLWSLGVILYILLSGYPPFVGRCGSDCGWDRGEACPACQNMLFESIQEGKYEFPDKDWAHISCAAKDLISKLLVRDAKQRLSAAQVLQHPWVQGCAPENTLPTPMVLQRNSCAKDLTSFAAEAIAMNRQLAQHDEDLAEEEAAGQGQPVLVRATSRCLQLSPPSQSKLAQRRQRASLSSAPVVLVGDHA

For `CN(C(=O)CN1CCOCC1)c1ccc2sc3c(-c4cccc5c(=O)cc(N6CC7CCC(C6)O7)oc45)cccc3c2c1` [NU5455], the inhibition at 1 µM was determined as 0.2%.
